# Results published in PubChem BioAssay (NCI).
#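 Each compound was tested at five concentrations against cells in 96-well plates for 48 hours. At the TGI there is no net growth.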 Peptide text beside a SMILES is read from it. * marks the point of attachment. X26 = Clc1c(Cl)c(Cl)c(O*)c(Cl)c1Cl; Boc = CC(C)(C)OC(=O)*; OBn = c1ccc(CO*)cc1; Bn = c1ccc(C*)cc1
# Columns and labels:
# Assay in all cases: inhibition of tumour cell growth, NCI panel, 48 h
# ACHN renal = tested on: ACHN renal
# HOP-92 NSCLC = tested on: HOP-92 NSCLC
# K-562 leukemia = tested on: K-562 leukemia
# KM12 colon = tested on: KM12 colon
# M14 melanoma = tested on: M14 melanoma
# MDA-MB-231 breast = tested on: MDA-MB-231 breast
# SK-MEL-28 melanoma = tested on: SK-MEL-28 melanoma
# SK-OV-3 ovarian = tested on: SK-OV-3 ovarian
# SNB-75 CNS = tested on: SNB-75 CNS
# SR leukemia = tested on: SR leukemia
Compound,TGI (ACHN renal),TGI (HOP-92 NSCLC),TGI (K-562 leukemia),TGI (KM12 colon),TGI (M14 melanoma),TGI (MDA-MB-231 breast),TGI (SK-MEL-28 melanoma),TGI (SK-OV-3 ovarian),TGI (SNB-75 CNS),TGI (SR leukemia)
N#C/C(=C\c1cccc(Br)c1)c1nc2ccccc2c(=O)[nH]1,> 100 µM,53.2 µM,> 100 µM,> 100 µM,> 100 µM,> 100 µM,> 100 µM,> 100 µM,76 µM,> 100 µM
NC(Cc1[nH]nc2ccccc12)C(=O)O (stereo not given),> 100 µM,> 100 µM,> 100 µM,> 100 µM,> 100 µM,> 100 µM,> 100 µM,> 100 µM,> 100 µM,> 100 µM
COCC#C[C@@]1(O)CCCCC1CC(OC)OC (stereo not given in full),> 100 µM,> 100 µM,> 100 µM,> 100 µM,> 100 µM,> 100 µM,> 100 µM,> 100 µM,> 100 µM,> 100 µM
Cc1cc(S(=O)(=O)Nc2n[nH]c(Nc3ccccc3)n2)c(SCC(=O)O)cc1Cl,> 100 µM,> 100 µM,> 100 µM,> 100 µM,> 100 µM,> 100 µM,> 100 µM,> 100 µM,> 100 µM,> 100 µM
CCOc1ccc(N=Nc2ccc3cc(/C(C)=N/NC(=O)/C(C#N)=C\c4ccc(N(CCC#N)CCC#N)cc4)c(=O)oc3c2)cc1,> 10 µM,> 10 µM,> 10 µM,> 10 µM,> 10 µM,> 10 µM,> 10 µM,> 10 µM,> 10 µM,> 10 µM
Cn1c2c(c3ccccc31)CCN1C(=O)C34CCCC3CC21S4 (stereo not given),> 100 µM,> 100 µM,> 100 µM,> 100 µM,> 100 µM,> 100 µM,> 100 µM,> 100 µM,,> 100 µM
O=C(OC12CC3CC(CC(C3)C1)C2)c1ccc(NCc2cc(O)ccc2O)cc1,2.35 µM,2.07 µM,2.38 µM,5.19 µM,5.18 µM,5.87 µM,1.62 µM,13.2 µM,2.68 µM,0.907 µM
N#Cc1ccc(-c2nc(C#N)c(N)o2)cc1,> 10 µM,> 10 µM,> 10 µM,> 10 µM,> 10 µM,> 10 µM,> 10 µM,> 10 µM,> 10 µM,> 10 µM
N#Cc1nc(CCCN2C(=O)c3ccccc3C2=O)oc1N,> 100 µM,,> 100 µM,,> 100 µM,> 100 µM,> 100 µM,> 100 µM,,> 100 µM
CC(=O)OCC(=O)O[C@@H]1[C@H]2[C@@H](OC(=O)c3ccccc3)[C@@H](C)C[C@]2(O)[C@H](OC(C)=O)[C@@]2(C)C[C@]1(OC(C)=O)C[C@H]1C(=O)C(C)(C)[C@@H](OC(C)=O)[C@@H]12,> 25 µM,> 25 µM,> 25 µM,> 25 µM,> 25 µM,> 25 µM,> 25 µM,> 25 µM,> 25 µM,> 25 µM
C=C(C)[C@H]1CC(=O)/C(C)=C\CC/C(C)=C/CC[C@@]2(C)O[C@@H]2C1,87.3 µM,> 100 µM,> 100 µM,44.3 µM,> 100 µM,> 100 µM,64.6 µM,59 µM,> 100 µM,> 100 µM
CCCCN1C(=O)CC2[C@@H]3CCc4cc(OC)ccc4C3CC[C@]2(C)C1=O (stereo not given in full),> 10 µM,,> 10 µM,> 10 µM,> 10 µM,> 10 µM,> 10 µM,> 10 µM,> 10 µM,> 10 µM
COc1cc2c3c(cc(Cl)nc3c1OC)C(=O)C(=O)N2,27.9 µM,3.44 µM,> 100 µM,30.3 µM,29.3 µM,3.83 µM,33.7 µM,33.3 µM,29.4 µM,> 29.6 µM
CCOC(=O)/C=C(/C=C\COC1CCCCO1)c1ccccc1 (stereo not given),> 100 µM,,> 100 µM,79.3 µM,> 100 µM,> 100 µM,85.7 µM,> 100 µM,69.7 µM,53.8 µM
COC(=O)C1=C(C)NC(C)=C(C(=O)OC)C1c1cccc(N=O)c1,27.6 µM,20.1 µM,> 100 µM,30.2 µM,27 µM,27.9 µM,30.4 µM,44.3 µM,,> 100 µM
O=C1CC(c2ccccc2Cl)C2(C(=O)NC(=O)NC2=O)C(c2ccccc2Cl)C1 (stereo not given),> 100 µM,> 100 µM,> 100 µM,> 100 µM,> 100 µM,> 100 µM,> 100 µM,> 100 µM,> 100 µM,> 100 µM
CN(C)CCNc1c([N+](=O)[O-])sc2ccc(Cl)cc12,> 100 µM,,> 100 µM,> 100 µM,> 100 µM,> 100 µM,> 100 µM,> 100 µM,43 µM,> 100 µM
CC1CCc2sc3nc4n(c(=O)c3c2C1)CC(C)S4 (stereo not given),62.2 µM,64.9 µM,> 100 µM,> 100 µM,51.8 µM,52.3 µM,83.1 µM,96.3 µM,62.4 µM,> 100 µM
Cc1cccc(NS(=O)(=O)c2ccc(N=Nc3c(O)c(C(=O)O)cc4ccccc34)cc2)n1,> 100 µM,> 100 µM,> 100 µM,> 100 µM,> 100 µM,> 100 µM,> 100 µM,> 100 µM,> 100 µM,> 100 µM
O=C(O)C1=NN(c2ccc(S(=O)(=O)O)cc2)C2(C1)C(Cl)C(=O)N2c1nc2ccccc2s1 (stereo not given),30.7 µM,48.8 µM,58.5 µM,34.1 µM,30.3 µM,37.5 µM,46.3 µM,30.6 µM,30.7 µM,24.5 µM
C[n+]1c(-c2ccc(NC(=O)c3ccc(C(=O)Nc4ccc(-c5cn6ccccc6[n+]5C)cc4)cc3)cc2)cn2ccccc21,> 100 µM,> 100 µM,> 100 µM,> 100 µM,> 100 µM,> 100 µM,> 100 µM,> 100 µM,> 100 µM,> 100 µM

Compound,TGI (ACHN renal),TGI (HOP-92 NSCLC),TGI (K-562 leukemia),TGI (KM12 colon),TGI (M14 melanoma),TGI (MDA-MB-231 breast),TGI (SK-MEL-28 melanoma),TGI (SK-OV-3 ovarian),TGI (SNB-75 CNS),TGI (SR leukemia)
NCCN(CCN(C(=O)Nc1ccccc1)c1ccccc1)C(=O)Nc1ccccc1,59.9 µM,44.2 µM,> 100 µM,,53.4 µM,> 100 µM,35.9 µM,44.9 µM,45.4 µM,> 100 µM
C=C1CC(COc2ccc3c(C)c(C)c(=O)oc3c2C)(c2ccccc2)OC1=O (stereo not given),7.51 µM,2.96 µM,3.88 µM,9.35 µM,4.23 µM,7.86 µM,5.44 µM,13.4 µM,10.4 µM,> 100 µM
O=C1CS/C(=N/N=C/c2cn(Cc3ccc(Cl)cc3Cl)c3ccccc23)N1,> 100 µM,> 100 µM,> 100 µM,> 100 µM,> 100 µM,48 µM,> 100 µM,> 100 µM,54.4 µM,> 100 µM
Clc1ccc(OCc2nnc(COc3ccc(OCc4nnc(COc5ccc(Cl)cc5Cl)o4)c(Cl)c3)o2)c(Cl)c1,> 100 µM,33.5 µM,53.3 µM,> 100 µM,> 100 µM,63.1 µM,> 100 µM,,,36.6 µM
O=C(Sc1c(-c2ccccc2)c(=O)n(-c2ccccc2)c(=S)n1-c1ccccc1)c1ccco1,> 100 µM,> 92.6 µM,> 100 µM,> 100 µM,> 100 µM,> 100 µM,> 100 µM,> 100 µM,> 100 µM,> 78.9 µM
CCOc1ccc(NCC2CC/C(=C\C=C\c3ccccc3)C2=O)cc1 (stereo not given),> 92.2 µM,45.5 µM,> 100 µM,20.1 µM,29.6 µM,24.7 µM,35.5 µM,> 100 µM,59.9 µM,> 33.3 µM
Cc1nc(SCC(N)=O)c2sc(=S)n(-c3ccccc3)c2n1,> 10 µM,> 10 µM,> 10 µM,> 10 µM,> 10 µM,> 10 µM,> 10 µM,> 10 µM,> 10 µM,> 10 µM
N#Cc1nc(C2CCC(=O)O2)oc1N (stereo not given),> 100 µM,,> 100 µM,> 100 µM,> 100 µM,> 100 µM,> 100 µM,> 100 µM,> 100 µM,> 100 µM
CC(C)CC(NC(=O)C(CCC(=O)OCc1ccccc1)NC(=O)OC(C)(C)C)C(=O)NC(COCc1ccccc1)C(=O)NC(Cc1ccccc1)C(=O)Oc1c(Cl)c(Cl)c(Cl)c(Cl)c1Cl (stereo not given) (Boc-E(OBn)LS(Bn)F-X26; configuration not given here),57.8 µM,43.8 µM,,47.1 µM,78 µM,34.5 µM,56.4 µM,83.8 µM,> 100 µM,97.9 µM
CC(C)(C)c1cc(/C=C2/NC(=O)NC2=O)cc(C(C)(C)C)c1O,24.1 µM,27.9 µM,33.1 µM,28.5 µM,,26.2 µM,32 µM,32 µM,25.2 µM,33.2 µM
CCCCCCCCCCCCNC(=O)CCC(NC(=O)c1ccc(N(C)Cc2cnc3nc(N)nc(N)c3n2)cc1)C(=O)NCCCCCCCCCCCC (stereo not given),> 100 µM,30.9 µM,62.6 µM,> 100 µM,> 100 µM,> 100 µM,> 100 µM,,20.8 µM,32.3 µM
O=P1(C(O)/C=C/c2ccccc2)N(Cc2ccccc2)[C@@H]2CCCC[C@H]2N1Cc1ccccc1 (stereo not given in full),37.1 µM,7.48 µM,16.4 µM,19.5 µM,19.8 µM,26.2 µM,28.1 µM,> 100 µM,54.5 µM,
O=P(OCc1ccccc1)(OCc1ccccc1)C(O)/C=C/c1ccccc1 (stereo not given),95.9 µM,57.2 µM,> 100 µM,43.1 µM,37 µM,56.4 µM,> 100 µM,> 100 µM,,50.7 µM
O=c1[nH]c(=O)n(C2CC(O)C(CO)O2)cc1OC/C=C/Cc1ccccc1 (stereo not given),> 100 µM,,> 100 µM,> 100 µM,> 100 µM,> 100 µM,> 100 µM,> 100 µM,> 100 µM,> 100 µM
Cc1cnc2[nH]c(-c3cccc(F)c3)cc(=O)c2c1,> 100 µM,> 100 µM,> 100 µM,1.7 µM,,0.614 µM,> 100 µM,> 100 µM,> 100 µM,0.378 µM
Cn1nc2c(c1N)Cc1c(nn(C)c1N)-c1ccccc1-2,> 100 µM,> 100 µM,> 100 µM,> 100 µM,> 100 µM,> 100 µM,> 100 µM,> 100 µM,,> 100 µM
O=C1c2cccnc2S(=O)(=O)N1c1ccc([N+](=O)[O-])cc1,> 100 µM,> 100 µM,,> 100 µM,> 100 µM,> 100 µM,> 100 µM,> 100 µM,> 100 µM,> 100 µM
O=C1/C(=C/c2ccncc2)C(n2cccc2)c2c(Br)sc(Br)c21 (stereo not given),17.1 µM,7.83 µM,6.91 µM,24.7 µM,,4.96 µM,8.73 µM,20.7 µM,9.79 µM,9.51 µM
CCOc1snc(C(Cl)(Cl)Cl)c1Cl,> 100 µM,,> 100 µM,56.7 µM,> 100 µM,> 100 µM,94 µM,> 100 µM,54.9 µM,35.6 µM
CC1(C)N=C(N)N=C(N)N1c1cccc(OCc2cccc(N)c2)c1,> 100 µM,> 100 µM,> 100 µM,> 100 µM,> 100 µM,> 100 µM,> 100 µM,> 100 µM,> 100 µM,
CCCCCCCCCCCCOCCOCCOCCOCCOCCOCC(=O)NC(Cc1ccccc1)C(=O)Oc1ccc([N+](=O)[O-])cc1 (stereo not given),> 100 µM,> 100 µM,> 100 µM,> 100 µM,> 100 µM,> 100 µM,,> 100 µM,> 100 µM,63.9 µM
